From PubChem BioAssay (NCI)
Values joined by “and” are separate entries in the source; they are usually repeats but may differ in a detail not shown here. Identical values can stand only once.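 Step 1: Grow cells in 96-well plates. Step 2: Expose to compound for 48 hours at 5 concentrations. Step 3: Interpolate endpoints linearly; if unreached, use highest concentration. Here, GI50 denotes the concentration required for 50% inhibition of growth. TGI is the concentration that stops growth completely.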

Key:
Assay in all cases: NCI-60 cell line screen, 48 h
A549 NSCLC = tested on: A549 NSCLC
BT-549 breast = tested on: BT-549 breast
HT29 colon = tested on: HT29 colon
M14 melanoma = tested on: M14 melanoma
MOLT-4 leukemia = tested on: MOLT-4 leukemia
NCI-H23 lung = tested on: NCI-H23 lung
NCI-H522 lung = tested on: NCI-H522 lung
OVCAR-3 ovarian = tested on: OVCAR-3 ovarian
UACC-257 melanoma = tested on: UACC-257 melanoma
UACC-62 melanoma = tested on: UACC-62 melanoma

Compound	GI50 (A549 NSCLC)	TGI (A549 NSCLC)	GI50 (BT-549 breast)	TGI (BT-549 breast)	GI50 (HT29 colon)	TGI (HT29 colon)	GI50 (M14 melanoma)	TGI (M14 melanoma)	GI50 (MOLT-4 leukemia)	TGI (MOLT-4 leukemia)	GI50 (NCI-H23 lung)	TGI (NCI-H23 lung)	GI50 (NCI-H522 lung)	TGI (NCI-H522 lung)	GI50 (OVCAR-3 ovarian)	TGI (OVCAR-3 ovarian)	GI50 (UACC-257 melanoma)	TGI (UACC-257 melanoma)	GI50 (UACC-62 melanoma)	TGI (UACC-62 melanoma)
C=C(C)[C@@H]1CC[C@]2(C(N)=O)CC[C@]3(C)[C@H](CC[C@@H]4[C@@]5(C)C/C(=C/c6cccnc6)[C@H](O)C(C)(C)[C@@H]5CC[C@]43C)[C@@H]12	3.37 µM	> 100 µM	6.36 µM	> 100 µM	3.68 µM	> 100 µM	4.86 µM	> 100 µM	2.93 µM	> 100 µM	4.96 µM	> 100 µM	3.93 µM	> 100 µM	5.02 µM	> 100 µM	5.83 µM	> 100 µM	5.38 µM	> 100 µM
CCCCCC/C=C1\CCC(CN(C)C)C1=O (centres undefined)	–	36.9 µM	–	53.1 µM	–	14.5 µM	–	16.7 µM	–	18.7 µM	–	23.2 µM	–	6.28 µM	–	17.7 µM	–	17.7 µM	–	14.9 µM
O=S(=O)(Nc1ccccn1)c1ccc(N=Nc2ccc(O)c3ncccc23)cc1	1.65 µM	14 µM	1.25 µM	7.04 µM	4.53 µM	19.3 µM	1.21 µM	5.55 µM	1.37 µM	> 23.9 µM	2.34 µM	16 µM	0.418 µM	2.14 µM	1.13 µM	11.4 µM	1.39 µM	8.02 µM	0.582 µM	3.03 µM
COc1cc(N2CCC(N3CCN(C)CC3)CC2)ccc1Nc1ncc(Cl)c(Nc2ccccc2S(=O)(=O)C(C)C)n1	0.402 µM	2.03 µM	2.09 µM	5.6 µM	0.0612 µM	0.617 µM	1.16 µM	2.51 µM	0.809 µM	5.71 µM	1.05 µM	8.1 µM	0.525 µM	2.03 µM	2.22 µM	6.87 µM	1.23 µM	2.58 µM	1.18 µM	3.39 µM
CCN(CC)CC[n+]1cc2cc(OC)c(OC)cc2c2ccc3cc4c(cc3c21)OCO4	0.376 µM	1.84 µM	1.11 µM	2.88 µM	0.321 µM	1.36 µM	0.654 µM	2.31 µM	0.37 µM	4.64 µM	0.618 µM	2.3 µM	0.255 µM	1.05 µM	0.96 µM	2.33 µM	1.45 µM	3.36 µM	1.22 µM	4.89 µM
CCCCCCNCCCNc1c2ccccc2nc2cccc([N+](=O)[O-])c12	–	0.113 µM and 0.131 µM	0.212 µM	0.271 µM and 0.448 µM	–	0.0268 µM and 0.124 µM	–	0.0247 µM and 0.0205 µM	–	0.0854 µM and 0.0641 µM	0.0159 µM	0.0253 µM and 0.0599 µM	–	0.0421 µM	0.0395 µM	0.0477 µM and 0.206 µM	0.059 µM	0.252 µM and 0.261 µM	0.0181 µM	0.131 µM and 0.0618 µM
CC1=CC(=O)c2ccc(C)cc2C1=O	–	36.9 µM	–	25 µM	–	> 100 µM	–	30.8 µM	–	6.24 µM	–	23.9 µM	–	18.5 µM	–	29.1 µM	–	26.6 µM	–	21.9 µM
O=C(O)c1ccccc1Nc1ccc2nnc(-c3ccncc3)n2n1	13.3 µM	62 µM	2.59 µM	8.33 µM	5.66 µM	24.2 µM	7.03 µM	40.9 µM	6.99 µM	> 100 µM	14.1 µM	54.2 µM	10.4 µM	22.8 µM	9.7 µM	24.8 µM	10.6 µM	33.6 µM	5.18 µM	19.5 µM
Cc1ccc(C2=NN(c3ccc(S(N)(=O)=O)cc3)C(c3cn(-c4ccccc4)nc3-c3ccccc3)C2)cc1 (centres undefined)	6.75 µM	> 100 µM	3.85 µM	61.6 µM	4.8 µM	> 100 µM	8.54 µM	> 100 µM	3.72 µM	> 100 µM	14.1 µM	> 100 µM	25.1 µM	> 100 µM	14.3 µM	> 100 µM	29.6 µM	> 100 µM	32.4 µM	> 100 µM
C=CCSSc1ncnc2c1ncn2C1OC(CO)C(O)C1O (centres undefined)	21.9 µM	> 100 µM	3.67 µM	> 100 µM	2.7 µM	> 93.6 µM	0.536 µM	> 100 µM	1.54 µM	6.75 µM	3.94 µM	> 74.2 µM	1.34 µM	10.7 µM	0.829 µM	> 32.7 µM	6.79 µM	> 86.1 µM	1.64 µM	> 100 µM
O=[N+]([O-])c1cc2c(c([N+](=O)[O-])c1)Nc1ccccc1O2	5.51 µM	60.4 µM	7.58 µM	60.8 µM	6.41 µM	66.8 µM	11.5 µM	> 100 µM	6.22 µM	> 100 µM	2.78 µM	87.2 µM	2.78 µM	31.4 µM	3.69 µM	> 100 µM	3.74 µM	39.1 µM	5.11 µM	> 100 µM
CC(=O)[O][Bi]([c]1ccccc1)[c]1ccccc1	25.5 µM	86.7 µM	2.94 µM	9.32 µM	18.1 µM	32.3 µM	11.4 µM	24.5 µM	2.9 µM	> 100 µM	11.5 µM	27.8 µM	1.56 µM	3.11 µM	11.8 µM	34.3 µM	11.2 µM	23.6 µM	11.6 µM	24.1 µM
N#Cc1nn(-c2cc(=O)[nH]c3ccc(Br)cc23)c(N)c1C#N	> 100 µM	> 100 µM	> 100 µM	> 100 µM	> 100 µM	> 100 µM	> 100 µM	> 100 µM	> 100 µM	> 100 µM	51.5 µM	> 100 µM	22.7 µM	86.4 µM	> 100 µM	> 100 µM	> 100 µM	> 100 µM	> 100 µM	> 100 µM
O=C(NCCCCCCNC(=O)OCc1ccc2c(Cl)cc(Cl)c(O)c2n1)OCc1ccc2c(Cl)cc(Cl)c(O)c2n1	1.55 µM	3.62 µM	0.748 µM	2.17 µM	0.565 µM	2.23 µM	0.893 µM	2.32 µM	0.688 µM	5.55 µM	1.42 µM	3.06 µM	0.46 µM	2.1 µM	0.327 µM	1.24 µM	1.3 µM	2.77 µM	1.06 µM	2.28 µM
CNC(=O)CN1CCC(Oc2cc3c(Nc4cccc(Cl)c4F)ncnc3cc2OC)CC1	5.66 µM and > 4.69 µM	22.9 µM and > 10 µM	16.2 µM and > 10 µM	38.9 µM and > 10 µM	11.6 µM and > 7.06 µM	32.6 µM and > 10 µM	18 µM and > 8.27 µM	34.1 µM and > 10 µM	16 µM and > 6.28 µM	> 74.5 µM	18.2 µM and > 7.11 µM	> 58.5 µM	0.143 µM and 0.0614 µM	20.4 µM and > 10 µM	3.83 µM and 2.34 µM	18.8 µM and > 10 µM	13.7 µM and > 10 µM	29.2 µM and > 10 µM	16.3 µM and > 10 µM	32.6 µM and > 10 µM
Clc1ccc2c(NCCNc3nc(N4CCCC4)nc4ccccc34)ccnc2c1	0.29 µM	2.54 µM	2.01 µM	4.98 µM	0.0943 µM	1.39 µM	0.935 µM	2.76 µM	0.538 µM	5.1 µM	2.05 µM	5.22 µM	1.36 µM	3.1 µM	0.492 µM	1.07 µM	1.96 µM	3.76 µM	1.8 µM	3.5 µM
CCOC(=O)N1C=CC(=C2C(=C3C=CN(C(=O)OCC)C=C3)C(=C3C=CN(C(=O)OCC)C=C3)C2=C2C=CN(C(=O)OCC)C=C2)C=C1	–	> 100 µM	–	> 100 µM	–	> 100 µM	–	> 100 µM	–	45.1 µM	–	> 100 µM	–	65.4 µM	–	81.1 µM	–	> 100 µM	–	45 µM
O=S(=O)(CCCCl)SCCCCl	–	> 100 µM	–	28.1 µM	–	62.5 µM	–	47.3 µM	–	38.5 µM	–	> 100 µM	–	32.6 µM	–	> 66.6 µM	–	> 100 µM	–	> 100 µM
C[C@@H]1OCC2(CCN(c3cnc(Sc4ccnc(N)c4Cl)c(N)n3)CC2)[C@@H]1N	> 100 µM	> 100 µM	34.6 µM	> 100 µM	> 100 µM	> 100 µM	> 100 µM	> 100 µM	> 90.9 µM	> 100 µM	1.34 µM	> 100 µM	7.98 µM	> 100 µM	> 100 µM	> 100 µM	> 100 µM	> 100 µM	> 100 µM	> 100 µM
O=c1ccnc(SCc2ccc(Cl)cc2)[nH]1	–	> 100 µM	–	> 100 µM	–	> 100 µM	–	> 100 µM	–	> 100 µM	–	> 100 µM	–	> 100 µM	–	> 100 µM	–	> 100 µM	–	> 100 µM
CC[CH2][Sn]([CH2]CC)([O]C(=O)Cc1ccc(F)cc1)[O][Sn]([CH2]CC)([CH2]CC)[O]C(=O)Cc1ccc(F)cc1	1.88 µM	4.71 µM	0.256 µM	0.92 µM	0.728 µM	2.02 µM	0.237 µM	0.622 µM	0.0614 µM	9.15 µM	0.0539 µM	0.276 µM	–	0.0322 µM	0.431 µM	1.27 µM	0.204 µM	0.869 µM	0.172 µM	0.524 µM
